According to patent US20220288058A1, “COMBINATION THERAPY USING A MALT1 INHIBITOR AND A BTK INHIBITOR” (Janssen Pharmaceutica NV, priority 2021, published 2022):
Entries after “also recorded” stand apart in the source; their conditions may differ.

Columns and labels:
NHL and CLL = assay: Clinical trial of Compound B monotherapy in the same patient population; format: in vivo, human
Protocol: Another clinical trial is being conducted in the same patient population, in which Compound B is administered as a monotherapy. […] Two patients (1 MCL, 1 CLL) achieved PR soon after dose escalation to 280 mg BID at Cycles 7 and 9, respectively. […] Therefore, the response seen in CLL/SLL patients in the combinational study is unlikely to attribute to either Compound A or Compound B alone.

[1] = Body weight and tolerability monitoring of OCI-LY10 tumor bearing NSG mice (Studies 2-4); format: in vivo
Protocol: Subsequently animal body weight and tumor volume was monitored two to three times per week. Animals were monitored daily for clinical signs related to either compound toxicity or tumor burden (i.e., hind limb paralysis, lethargy, dyspnea, etc.).
Body weight changes of individual mice were calculated using the formula: ([W−W0]/W0)×100, where “W” represents mean body weight on a particular day, and “W0” represents body weight at initiation of treatment. Body weight was graphed as mean body weight change±SEM.

Pharmacokinetics in mice = format: in vivo, mouse
[2] = tested on: OCI-LY10 human DLBCL xenografts; assay: Study 2: Compound B monotherapy efficacy, OCI-LY10 xenografts in NSG mice; format: in vivo, mouse; details: for TGI / ΔTGI: Study 2, Day 45; for animals succumbed to disease burden / animals removed from the study due to tumor progression: Study 2; for animals succumbed to disease burden: by 17 days into the 21-day treatment; for animals removed from the study due to tumor progression: by 21 days of treatment
Protocol: In efficacy study, Study 2, NSG female animals were injected SC into the right find flank with 5×10^6 OCI-LY10 cells in PBS containing 50% Matrigel™. On day 32, mice were randomized based on tumor volume (mean tumor volume of 207 mm^3) and treated orally once or twice daily with BTK inhibitor Compound B according to treatment schedule above (see Table 4) for 21 days. After the last dose on Day 53, blood was collected serially via submandibular vein sampling from 5 animals per time point per treatment group at 2, 4, 12, and 24 hours after dosing. Blood was collected in EDTA and plasma was obtained via centrifugation at 3000 rpm for 10 minutes. Samples were snap frozen and stored at […] for possible future analyses.
Tumor volume in SC models was calculated using the formula: tumor volume (mm^3)=(D×d^2/2); where “D” represents the larger diameter and “d” the smaller diameter of the tumor as determined by calliper measurements. Tumor volume data was graphed as the mean tumor volume f SEM.
The percent ΔTGI was defined as the difference between mean tumor burden of the treatment and control groups, calculated using the following formula: ([(TVc−TVc0)−(TVt−TVt0)]/(TVc−TVc0))×100, where “TVc” is the mean tumor burden of a given control group, “TVc0” is the mean initial tumor burden of a given control group, “TVt” is the mean tumor burden of the treatment group, and “TVt0” is the mean initial tumor burden of the treatment group. The percent tumor growth inhibition (TGI) was defined as the difference between mean tumor volumes of the treated and control groups, calculated as: ((TVc−TVt)/TVc)×100 where “TVc” is the mean tumor volume of the control group and “TVt” is the mean tumor volume of the treatment group. […] Johnson et al., Br J Cancer. 2001; 84(10):1424-1431.

BTK protein = biological target: T1, BTK protein (Homo sapiens, UniProt Q06187); assay: Study 1: BTK occupancy assay (ELISA) in OCI-LY10 DLBCL tumor lysates of NSG mice; format: in vivo, mouse
T1 construct: measuring the amount of free BTK protein in OCI-LY10 DLBCL tumor lysates of mice treated with various dosing concentrations of Compound B; endogenous in cells; host or cells: OCI-LY10 ABC-DLBCL xenograft tumours grown SC in female NSG mice (tumour lysates)
T1 sequence (Q06187 whole entry): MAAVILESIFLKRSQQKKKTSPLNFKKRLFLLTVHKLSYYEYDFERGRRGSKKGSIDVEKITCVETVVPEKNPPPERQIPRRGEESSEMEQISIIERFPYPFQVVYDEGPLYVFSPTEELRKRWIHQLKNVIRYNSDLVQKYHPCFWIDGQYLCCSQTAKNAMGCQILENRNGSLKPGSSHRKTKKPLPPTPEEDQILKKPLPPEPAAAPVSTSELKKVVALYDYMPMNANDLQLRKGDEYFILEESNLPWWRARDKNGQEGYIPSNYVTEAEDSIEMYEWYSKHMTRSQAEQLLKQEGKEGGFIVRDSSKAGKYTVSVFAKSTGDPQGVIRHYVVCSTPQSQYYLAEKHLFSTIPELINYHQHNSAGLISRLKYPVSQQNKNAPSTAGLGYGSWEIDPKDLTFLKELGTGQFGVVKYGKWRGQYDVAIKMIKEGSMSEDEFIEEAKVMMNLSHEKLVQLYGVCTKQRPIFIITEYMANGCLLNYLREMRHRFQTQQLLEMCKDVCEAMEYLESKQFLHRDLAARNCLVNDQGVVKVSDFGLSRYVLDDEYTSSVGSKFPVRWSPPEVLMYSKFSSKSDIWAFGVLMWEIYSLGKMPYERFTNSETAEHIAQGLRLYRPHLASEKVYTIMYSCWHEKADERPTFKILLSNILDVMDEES
Protocol: In Study 1, 5×10^6 OCI-LY10 cells in PBS containing 50% Matrigel™ were injected subcutaneously (SC) into the right hind flank of female NSG mice. Tumor growth was measured over time and once tumors reached volumes of approximately 525 mm^3, mice were randomized in groups of 15 and treated orally with a single dose of Compound B according to treatment schedule (see Table 4). Blood was collected serially by mandibular vein sampling from 5 animals per time point per group to determine circulating compound concentration and IL10 levels at 2, 4, 8, 12, 16, and 24 hours post single dose. Blood was harvested in EDTA and plasma was obtained via centrifugation at 3000 rpm for 10 minutes. In addition, tumor samples were harvested from 5 animals per timepoint per treatment group for BTK occupancy studies at 4, 12, and 24 hours post single dose.
Compound B is a covalent orally bioavailable inhibitor binding BTK irreversibly, allowing us to evaluate the duration of signaling shutdown and occupancy of BTK protein after compound administration considering compound binding to BTK as well as synthesis rate of new BTK protein. Target engagement was determined by measuring the amount of free BTK protein in OCI-LY10 DLBCL tumor lysates of mice treated with various dosing concentrations of Compound B using a BTK occupancy assay (ELISA assay format). A covalent BTK inhibitor probe, chemically linked to biotin (CNX-500 Probe), was incubated in PBS/BT (PBS+1% BSA+0.05% tween-20) with tumor lysate for 1 hour at 28° C. Incubated BTK standards and samples were transferred to a streptavidin-coated 96-well plates and mixed while shaking for 30 minutes at RT. The BTK-antibody was then added and incubated overnight at 4° C. After washing, goat anti-mouse-HRP was added and incubated for 1 hour at RT. The ELISA was developed with addition of tetramethyl benzidine (TMB) followed by sulfuric acid (stop solution) and read at optical density 450 nm on Envision device.

Question: With `C=CC(=O)N[C@H]1CCC[C@H]1NC(=O)c1sc2nccc3c2c1NC(=O)N3c1cnc(CC(C)C)cc1C` (atropisomer, axis not shown) [Compound B, N-((1R,2S)-2-acrylamidocyclopentyl)-5-(S)-(6-isobutyl-4-methylpyridin-3-yl)-4-oxo-4,5-dihydro-3H-1-thia-3,5,8-triazaacenaphthylene-2-carboxamide] as the molecule, how does the “patients with PR or CR” value (NHL and CLL; Compound B monotherapy 140 mg QD and 140 mg BID, 7 treated patients) read?
Answer: none of the 7 treated patients had PR or CR

Question: And the “patients achieving PR” value (NHL and CLL; Compound B monotherapy after dose escalation to 280 mg BID, Cycles 7 and 9 (1 MCL, 1 CLL))?
Answer: Two patients

Question: What about the body weight ([1]; Study 2, 3 weeks of treatment) of the same molecule?
Answer: no body weight loss was observed

Question: And the “animals found dead or taken off study due to negative clinical signs” value ([1]; Study 3, Compound B 30 mg/kg QD)?
Answer: one animal

Question: What about the “body weight loss during the 3 weeks of treatment” value ([1]; Study 3 and Study 4, similar frequencies in vehicle group) of the same molecule?
Answer: low level, transient body weight loss; also recorded: low level, transient, body weight loss

Question: What about the “animals removed due to reaching the maximum allowed body weight loss of 20%” value ([1]; Study 4, Compound B 15 mg/kg) of the same molecule?
Answer: one each

Question: And the “animals died during the study” value ([1]; Study 4, Compound B 50 mg/kg)?
Answer: one animal

Question: What about the “tolerability in NSG mice” value ([1]; all dose levels tested, up to 50 mg/kg BID or 100 mg/kg QD) of the same molecule?
Answer: well tolerated

Question: What about the half-life (Pharmacokinetics in mice; NSG, mouse, in vivo, NSG mice, read-out: half-life (converted)) of the same molecule?
Answer: 42 min

Question: And the clearance (Pharmacokinetics in mice; mice)?
Answer: moderate clearance

Question: And the TGI ([2]; Compound B 5 mg/kg BID po)?
Answer: 26%

Question: And the ΔTGI ([2]; Compound B 5 mg/kg BID po)?
Answer: 34%

Question: What about the TGI ([2]; Compound B 10 mg/kg QD po) of the same molecule?
Answer: 24%

Question: And the ΔTGI ([2]; Compound B 10 mg/kg QD po)?
Answer: 30%

Question: And the TGI ([2]; Compound B 30 mg/kg QD po)?
Answer: 35%

Question: And the ΔTGI ([2]; Compound B 30 mg/kg QD po)?
Answer: 45%

Question: And the TGI ([2]; Compound B 50 mg/kg BID po)?
Answer: 78%

Question: And the ΔTGI ([2]; Compound B 50 mg/kg BID po)?
Answer: 102%

Question: And the “animals succumbed to disease burden” value ([2]; Compound B 10 mg/kg QD)?
Answer: two animals

Question: What about the “animals succumbed to disease burden” value ([2]; Compound B 100 mg/kg QD) of the same molecule?
Answer: a mouse

Question: What about the “animals removed from the study due to tumor progression” value (“animals removed from the study due” for short) ([2]; Compound B 5 mg/kg BID) of the same molecule?
Answer: 4/10

Question: And the “animals removed from the study due” value ([2]; Compound B 10 mg/kg QD)?
Answer: 7/10

Question: And the “animals removed from the study due” value ([2]; Compound B 15 mg/kg BID)?
Answer: 1/10

Question: And the “animals removed from the study due” value ([2]; Compound B 30 mg/kg QD)?
Answer: 2/10

Question: What about the “animals removed from the study due” value ([2]; Compound B 100 mg/kg QD) of the same molecule?
Answer: 3/10

Question: What about the “BTK occupancy in tumor lysates” value (BTK protein; 1 mg/kg single dose) of the same molecule?
Answer: No BTK occupancy

Question: What about the “BTK occupancy in tumor lysates” value (BTK protein; 3 mg/kg single dose) of the same molecule?
Answer: No BTK occupancy

Question: What about the “decrease in unoccupied (free) BTK in tumors” value (BTK protein; Compound B at 1, 3, 10, 30, or 100 mg/kg single dose, maximal at ≥ 30 mg/kg, sustained through 24 hours) of the same molecule?
Answer: Dose-and time-dependent

Question: And the receptor occupancy at 10 mg/kg (BTK protein; OCI-Ly10, 4 hours after dosing)?
Answer: 54%

Question: What about the receptor occupancy at 30 mg/kg (BTK protein; OCI-Ly10, 4 hours after dosing) of the same molecule?
Answer: 90%

Question: And the receptor occupancy at 100 mg/kg (BTK protein; OCI-Ly10, 4 hours after dosing)?
Answer: 95%

Question: What about the receptor occupancy at 10 mg/kg (BTK protein; OCI-Ly10, 12 hours) of the same molecule?
Answer: 71%

Question: What about the receptor occupancy at 30 mg/kg (BTK protein; OCI-Ly10, 12 hours) of the same molecule?
Answer: 94%

Question: And the receptor occupancy at 100 mg/kg (BTK protein; OCI-Ly10, 12 hours)?
Answer: 96%

Question: And the receptor occupancy at 10 mg/kg (BTK protein; OCI-Ly10, 24 hours)?
Answer: 70%

Question: And the receptor occupancy at 30 mg/kg (BTK protein; OCI-Ly10, 24 hours)?
Answer: 91%

Question: And the receptor occupancy at 100 mg/kg (BTK protein; OCI-Ly10, 24 hours)?
Answer: 85%

Question: And the “BTK occupancy in tumors” value (BTK protein; single dose as low as 30 mg/kg, effects lasting up to 24 hours)?
Answer: complete BTK occupancy
